# Columns and labels:
# Experiment in all cases: relative IC50 (inflection point of fitted viability curve, relative to fitted max inhibition); higher = less sensitive
# Conditions in all cases: 72 h
# NK-YS (IL-2 2.5 ng/mL) = test system: NK-YS (IL-2 2.5 ng/mL)
# Protocol: (§1)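 Drug sensitivity and resistance testing: 5 concentrations over a 10,000-fold range, 72 h at 37 °C, viability by CellTiter-Glo normalised to DMSO and benzethonium chloride controls. IC50 is the inflection point of a logistic fit (min fixed at 0, max fitted), so it is relative to the fitted maximal inhibition. Kept only where fitted max inhibition is at least 50%.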
# [1] = test system: normal primary NK cells, pool 1 (3 donors) (IL-2 2.5 ng/mL)
# Protocol: as §1
# IMC-1 (IL-2 20 ng/mL) = test system: IMC-1 (IL-2 20 ng/mL)
# Protocol: as §1
# KAI3 (IL-2 2.5 ng/mL) = test system: KAI3 (IL-2 2.5 ng/mL)
# Protocol: as §1
# NK-92 (IL-2 2.5 ng/mL) = test system: NK-92 (IL-2 2.5 ng/mL)
# Protocol: as §1
# [2] = test system: normal primary NK cells, pool 3 (3 donors) (IL-2 2.5 ng/mL)
# Protocol: as §1
# SNK-6 (IL-2 2.5 ng/mL) = test system: SNK-6 (IL-2 2.5 ng/mL)
# Protocol: as §1
# NKL (IL-2 2.5 ng/mL) = test system: NKL (IL-2 2.5 ng/mL)
# Protocol: as §1
# DERL-7 (IL-2 2.5 ng/mL) = test system: DERL-7 (IL-2 2.5 ng/mL)
# Protocol: as §1
# YT (IL-2 2.5 ng/mL) = test system: YT (IL-2 2.5 ng/mL)
# Protocol: as §1
# [3] = test system: normal primary NK cells, pool 2 (3 donors) (IL-2 2.5 ng/mL)
# Protocol: as §1
# KHYG-1 (IL-2 2.5 ng/mL) = test system: KHYG-1 (IL-2 2.5 ng/mL)
# Protocol: as §1
# [4] = test system: normal primary NK cells, pool 1 (3 donors), resting (IL-2 0 ng/mL)
# Protocol: as §1
Structure (SMILES),relative IC50 (NK-YS (IL-2 2.5 ng/mL)),relative IC50 [1],relative IC50 (IMC-1 (IL-2 20 ng/mL)),relative IC50 (KAI3 (IL-2 2.5 ng/mL)),relative IC50 (NK-92 (IL-2 2.5 ng/mL)),relative IC50 [2],relative IC50 (SNK-6 (IL-2 2.5 ng/mL)),relative IC50 (NKL (IL-2 2.5 ng/mL)),relative IC50 (DERL-7 (IL-2 2.5 ng/mL)),relative IC50 (YT (IL-2 2.5 ng/mL)),relative IC50 [3],relative IC50 (KHYG-1 (IL-2 2.5 ng/mL)),relative IC50 [4]
C[C@@H](Oc1ccc2[nH]nc(/C=C/c3cnn(CCO)c3)c2c1)c1c(Cl)cncc1Cl,59.2 nM,47.9 nM,165 nM,20.9 nM,50.1 nM,30.1 nM,15.7 nM,11.9 nM,91.8 nM,224 nM,15.6 nM,16.1 nM,–
Cc1ncc(-c2ccnc(Nc3ccc(S(C)(=O)=O)cc3)n2)n1C(C)C [AZD-5438],848 nM,2220 nM,1220 nM,1150 nM,3010 nM,1800 nM,3300 nM,2740 nM,1370 nM,1570 nM,1930 nM,1080 nM,5260 nM
Cc1cc(Nc2cc(N3CCN(C)CC3)nc(/C=C/c3ccccc3)n2)n[nH]1 [ENMD-2076],293 nM,1500 nM,573 nM,256 nM,901 nM,1970 nM,541 nM,503 nM,497 nM,1360 nM,1290 nM,482 nM,1710 nM
O=NN(CCCl)C(=O)NC1CCCCC1 [Lomustine],–,> 10000 nM,> 10000 nM,–,> 10000 nM,> 10000 nM,–,> 10000 nM,> 10000 nM,–,> 10000 nM,–,–
COc1cc2c(N3CCN(C(=O)Nc4ccc(OC(C)C)cc4)CC3)ncnc2cc1OCCCN1CCCCC1 [Tandutinib],–,–,–,–,–,> 1000 nM,–,–,–,–,–,–,–
COc1ccccc1S(=O)(=O)Nc1ccc2c(c1)CN(C)C(=O)N2 [PFI-1],1310 nM,–,2970 nM,–,–,–,–,1080 nM,1080 nM,2310 nM,1780 nM,1640 nM,–
N.N.[Cl][Pt][Cl] [Cisplatin],–,–,515 nM,–,–,15600 nM,–,–,–,–,14800 nM,–,–
CNC(=O)c1nn(C)c2c1C(C)(C)Cc1cnc(Nc3ccc(N4CCN(C)CC4)cc3)nc1-2 [Milciclib],1170 nM,1100 nM,3420 nM,1230 nM,1190 nM,1470 nM,1780 nM,1220 nM,634 nM,1680 nM,775 nM,278 nM,449 nM
CN(C)/N=N/c1[nH]cnc1C(N)=O [Dacarbazine],–,–,–,–,> 10000 nM,–,–,–,> 10000 nM,2970 nM,> 10000 nM,–,> 10000 nM
Cc1cn(-c2cc(NC(=O)c3ccc(C)c(Nc4nccc(-c5cccnc5)n4)c3)cc(C(F)(F)F)c2)cn1 [Nilotinib],–,–,–,–,–,> 10000 nM,–,869 nM,–,–,–,–,–
CN1CCc2c(c3ccccc3n2Cc2ccc(C(=O)NO)cc2)C1 [Tubastatin A],1810 nM,1790 nM,3270 nM,1170 nM,1580 nM,–,1430 nM,1030 nM,3400 nM,2420 nM,–,2550 nM,1510 nM
C[C@]12C=CC(=O)C=C1CC[C@@H]1[C@@H]2C(=O)C[C@@]2(C)[C@H]1CC[C@]2(O)C(=O)CO [Prednisone],–,–,–,–,–,–,–,–,–,–,> 10000 nM,–,–
COc1cc2c(cc1-c1c(C)noc1C)ncc1[nH]c(=O)n([C@H](C)c3ccccn3)c12 [I-BET151],707 nM,1040 nM,2040 nM,848 nM,–,1850 nM,149 nM,375 nM,306 nM,966 nM,1240 nM,606 nM,1010 nM
CO[C@H]1/C=C\C=C(/C)C(=O)NC2=CC(=O)C(NCCN(C)C)=C(C[C@@H](C)C[C@H](OC)[C@H](O)[C@@H](C)/C=C(\C)[C@@H]1OC(N)=O)C2=O [Alvespimycin],25.1 nM,29.4 nM,192 nM,44.5 nM,68.8 nM,86.5 nM,20.5 nM,31.9 nM,49.1 nM,130 nM,29.5 nM,91.8 nM,–
C/C(=C\c1csc(C)n1)[C@@H]1C[C@@H]2O[C@]2(C)CCC[C@H](C)[C@H](O)[C@@H](C)C(=O)C(C)(C)[C@@H](O)CC(=O)N1 [Ixabepilone],348 nM,> 1000 nM,360 nM,383 nM,398 nM,–,348 nM,357 nM,335 nM,308 nM,–,301 nM,> 1000 nM
CN[C@@H]1C[C@H]2O[C@@](C)([C@@H]1OC)n1c3ccccc3c3c4c(c5c6ccccc6n2c5c31)C(=O)N[C@H]4O [UCN-01],51.1 nM,97.1 nM,375 nM,21.3 nM,39.3 nM,126 nM,15.3 nM,53.3 nM,27 nM,184 nM,75.8 nM,24.9 nM,204 nM
COc1ccc(-c2ccc3ncc4c(c3c2)n(-c2ccc(N3CCNCC3)c(C(F)(F)F)c2)c(=O)n4C)cn1 [NVP-BGT226],25.3 nM,105 nM,90.7 nM,45.8 nM,29.8 nM,167 nM,53.8 nM,47.8 nM,8.54 nM,45.6 nM,128 nM,48.4 nM,64.4 nM
COc1cc(Nc2c(C#N)cnc3cc(OCCCN4CCN(C)CC4)c(OC)cc23)c(Cl)cc1Cl [Bosutinib],2980 nM,1710 nM,3640 nM,1350 nM,1620 nM,3450 nM,3870 nM,3110 nM,1320 nM,1950 nM,1520 nM,1480 nM,850 nM
CCN(CC)CCCC(C)Nc1ccnc2cc(Cl)ccc12 (stereo not given) [Chloroquine],–,–,33400 nM,–,–,9060 nM,–,–,–,–,14300 nM,–,–
CN(C)C[C@@H]1CCn2cc(c3ccccc32)C2=C(C(=O)NC2=O)c2cn(c3ccccc23)CCO1 [Ruboxistaurin],1540 nM,1430 nM,4180 nM,1430 nM,2950 nM,2000 nM,2810 nM,1240 nM,1140 nM,2730 nM,2110 nM,1290 nM,1070 nM
CC(C)(C#N)c1cc(Cn2cncn2)cc(C(C)(C)C#N)c1 [Anastrozole],> 10000 nM,–,> 10000 nM,–,–,> 10000 nM,–,–,–,–,> 10000 nM,> 10000 nM,–
NC(=O)Nc1sc(-c2ccc(F)cc2)cc1C(N)=O [TPCA-1],1440 nM,997 nM,7190 nM,218 nM,860 nM,1020 nM,514 nM,274 nM,367 nM,912 nM,658 nM,381 nM,2310 nM
S=C(NCc1ccc2c(c1)OCO2)N1CCN(c2ncnc3c2oc2ccccc23)CC1 [Amuvatinib],2060 nM,1570 nM,–,1480 nM,911 nM,1760 nM,388 nM,815 nM,521 nM,–,1930 nM,1330 nM,1380 nM
Cc1cc(Nc2ncc(Cl)c(Nc3ccccc3S(=O)(=O)C(C)C)n2)c(OC(C)C)cc1C1CCNCC1 [Ceritinib],> 2500 nM,616 nM,> 2500 nM,–,–,–,–,> 2500 nM,–,–,–,–,464 nM
O=C1c2c(O)ccc(O)c2C(=O)c2c(NCCNCCO)ccc(NCCNCCO)c21 [Mitoxantrone],114 nM,322 nM,170 nM,91 nM,–,–,34.8 nM,32.2 nM,80.5 nM,–,185 nM,158 nM,151 nM
CC(C)C(=O)Nc1ccc([N+](=O)[O-])c(C(F)(F)F)c1 [Flutamide],–,> 10000 nM,–,> 10000 nM,–,–,–,–,–,–,–,> 10000 nM,–

# Reference: the supplement of paper PMC5908809
